Here are results for twelve compounds from patent publication US20110224079A1, “SPIROHETEROCYCLIC N-OXYAMIDES AS PESTICIDES” (SYNGENTA CROP PROTECTION LLC, priority 2008, published 2011).

Test [1] has as its system Myzus persicae (green peach aphid). Kind of test: Example B1: activity against Myzus persicae, sprayed sunflower leaf discs (feeding/residual contact, preventive). To be noted: foliar, 144 h, read-out: activity (mortality).
In test [2] the test system is Aphis Craccivora (cowpea aphid). Description: Example B10: activity against Aphis craccivora, pea seedling roots in test solution (systemic/feeding). The class given is in vivo. To be noted: 144 h, roots of infested pea seedlings in test solution, 6 days. The source says: (§1) Activity Against Aphis Craccivora (Cowpea Aphid)
(Mixed Population, Systemic/Feeding)

Test [3] has as its system Plutella xylostella (diamond back moth). Kind of test: Example B5: activity against Plutella xylostella, artificial diet in microtiter plate (larvicide, preventive). The following applies: 120 h, L2 larvae, 5 days, read-out: activity (larval mortality, antifeedant, growth regulation). It is filed as in vivo. As for the experimental part: Activity Against Plutella xylostella (Diamond Back Moth)
(Larvicide, Feeding/Residual Contact Activity, Preventive)
24-well microtiter plate (MTP) with artificial diet is treated with test solutions by pipetting. After drying, the MTP's are infested with larvae (L2)(10-15 per well). After an incubation period of 5 days, samples are checked for larval mortality, antifeedant and growth regulation.

The subject of test [4] is Aphis Craccivora (cowpea aphid). Kind of test: Example B11: translaminar activity against Aphis craccivora on French bean leaves. The class given is in vivo. To be noted: 120 h, upper leaf side painted, aphids on lower side, 5 days. As for the experimental part: Translaminar Activity Against Aphis Craccivora (Cowpea Aphid)
French bean leaves (Phaseolus vulgaris) are infested with about 20 mixed age individuals on the lower leaf side using clip cages. 1 day after the infestation, the upper side of the leaves is treated with the test solution by painting. 5 days later, samples are checked for mortality.

Test [5] concerns Nilaparvata lugens (brown rice planthopper). Description: Example B8: activity against Nilaparvata lugens, sprayed rice seedlings (larvicide, feeding/contact). To be noted: in Oryza sativa, read-out: activity (mortality, growth regulation, effects on F1 generation).
The test system of test [6] is Bemisia tabaci (tobacco white fly). Description: Example B7: activity against Bemisia tabaci, sprayed bean plants (larvicide, contact/feeding). The class given is in vivo. To be noted: 504 h, bean plants with N-2 nymphs sprayed, three weeks, read-out: activity (efficacy, number of emerged adults). An outline of the steps:
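After a 4-day egg-laying period and 7 further days, bean plants bearing hatched N-2 nymphs were sprayed with test solutions (2 replicates). Emerged adults were counted three weeks later; efficacy was derived by comparison with untreated samples.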

The subject of test [7] is Aphis Craccivora (cowpea aphid). Description: Example B9: activity against Aphis craccivora, sprayed pea seedlings (contact/feeding). To be noted: 144 h, infested pea seedlings sprayed, 6 days. It is filed as in vivo.
Text: as §1
(Mixed Population, Contact/Feeding)
6 days after treatment, samples are checked for mortality.

Test [8] has as its system Myzus persicae (green peach aphid). Description: Example B13: drench activity against Myzus persicae, pea seedlings in field soil. To be noted: 168 h, read-out: drench activity (mortality).
For test [9] the test system is unchanged. Kind of test: Example B17: activity against Myzus persicae on sprayed pepper plants (feeding/residual contact). The class given is in vivo. To be noted: 144 h, infested pepper plants sprayed, 6 days.
The test system is the same in test [10]. Kind of test: Example B2: activity against Myzus persicae, pea seedling roots in test solution (systemic/feeding, curative). To be noted: 144 h, read-out: activity (mortality).
Test [11] has as its system Aonidiella Aurantii (red scale). Kind of test: Example B12: activity against Aonidiella aurantii, dipped potato tubers. It is filed as in vivo. The following applies: 6-8 weeks after application, read-out: activity (number of crawlers of the next generation). The source says: Activity Against Aonidiella Aurantii (Red Scale)
Treatment of potato tubers by dipping the in the test solution. One day later, tubers are infested with about 50 crawlers. 6-8 weeks after application samples are checked for the number of crawlers of the next generation (compared to the non treated samples).

Test [12] relates to Tetranychus urticae (two-spotted spider mite). Kind of test: Example B4: activity against Tetranychus urticae, sprayed bean leaf discs (feeding/residual contact, preventive). To be noted: foliar, 192 h, read-out: activity (egg, larval and adult mortality).
The subject of test [13] is Thrips tabaci (onion thrips). Description: Example B3: activity against Thrips tabaci, sprayed sunflower leaf discs (feeding/residual contact, preventive). It is filed as in vivo. To be noted: foliar, 144 h, mixed population, 6 days. The source says: Activity Against Thrips tabaci (Onion Thrips)
(Mixed Population, Feeding/Residual Contact Activity, Preventive)

Test [14] concerns Frankliniella occidentalis (western flower thrips). Description: Example B6: activity against Frankliniella occidentalis, bean leaf discs or bean plants. It is filed as in vivo. To be noted: foliar, 6 days (leaf discs) or 14 days (plants) after infestation, read-out: activity (reduction of treated population). As for the experimental part:
Activity Against Frankliniella occidentalis (Western Flower Thrips)
Bean leaf discs on agar in petri dishes or bean plants in a spray chamber are treated with diluted test solutions. After drying leaf discs are cut and placed in plastic cups on the surface of an agar layer and infested with mixed population. 6 days (leaf discs) or 14 days (plants) after the infestation, samples are checked for reduction of treated population and compared to the non treated population.

Where only a bound is given, the exact number is not on record here.

In the case of `CCOC(=O)OC1=C(c2cc(C)ccc2C)C(=O)N(OCOC)C12CCN(OC)CC2` [P1.2, Carbonic acid 3-(2,5-dimethyl-phenyl)-8-methoxy-1-methoxy-methoxy-2-oxo-1,8-diaza-spiro[4.5]dec-3-en-4-yl ester ethyl ester], the mortality at 400 ppm in test [1], in test [2], in test [3], in [4], in [5] and in [7] was above 80% each time. Further, the mortality at 400 ppm in [10] is above 80%. Also, the pest or weed control at 200 ppm in test [6] is above 80%. Besides, the mortality at 25 ppm in test [8] is above 80%. In addition, the mortality at 200 ppm in test [9] is at least 80%.

Take `CCOC(=O)OC1=C(c2c(C)cc(C)cc2C)C(=O)N(OC2CCCO2)C12CCN(OC)CC2` (centres unmarked) [P1.9, Carbonic acid ethyl ester 8-methoxy-2-oxo-1-(tetrahydro-furan-2-yloxy)-3-(2,4,6-trimethyl-phenyl)-1,8-diaza-spiro[4.5]dec-3-en-4-yl ester]: the mortality at 400 ppm in [1], in test [2], in [3], in test [4], in test [5] and in test [12] was above 80% in each case. The mortality at 400 ppm in test [13] and in test [10] was above 80% throughout. Moreover, the pest or weed control at 200 ppm in test [11] and in [6] was above 80% throughout. The mortality at 25 ppm in test [8] is above 80%. This compound came in with a mortality at 200 ppm in test [9] of at least 80%. In [14], the pest or weed control at 400 ppm is above 80%.

In the case of `C=CCON1C(=O)C(c2c(C)cc(C)cc2C)=C(OC(=O)OCC)C12CCN(OC)CC2` [P1.17], the mortality at 400 ppm in [2], in test [4], in [5], in test [12], in [7] and in [10] was above 80% throughout. Also, the pest or weed control at 200 ppm in test [11] and in [6] was above 80% each time. Further, the mortality at 25 ppm in test [8] is above 80%. Besides, the mortality at 200 ppm in test [9] is at least 80%.

With `CCOC(=O)OC1=C(c2c(C)cc(Br)cc2C)C(=O)N(OCOC)C12CCN(OC)CC2` [P1.19], the mortality at 400 ppm in [1], in test [3], in test [4], in [5] and in [10] was above 80% in each case. The pest or weed control at 200 ppm in test [11] is above 80%. The mortality at 25 ppm in test [8] is above 80%. For the same compound, the mortality at 200 ppm in [9] was at least 80%.

On to `CCOC(=O)OC1=C(c2c(C)cccc2C)C(=O)N(OC)C12CCN(OC)CC2` [P1.74], for which the mortality at 400 ppm in test [1], in [3], in [12], in test [13] and in [10] was above 80% each time.

In the case of `CON1CCC2(CC1)C(O)=C(c1c(C)cc(C)cc1C)C(=O)N2O` [P2.4, 1,4-Dihydroxy-8-methoxy-3-(2,4,6-trimethyl-phenyl)-1,8-diaza-spiro[4.5]dec-3-en-2-one], the mortality at 400 ppm in [1], in test [3], in test [5], in test [12] and in [10] was above 80% in each case. Also, in test [6], the pest or weed control at 200 ppm is above 80%. Moreover, the mortality at 25 ppm in [8] was above 80%.

As to `COCCON1C(=O)C(c2c(C)cc(C)cc2C)=C(O)C12CCN(OC)CC2` [P2.5], the mortality at 400 ppm in test [1], in test [2], in [4], in [5], in test [12] and in test [10] was above 80% throughout. The pest or weed control at 200 ppm in [11] and in test [6] was above 80% each time. Moreover, the mortality at 25 ppm in [8] was above 80%.

As to `CON1CCC2(CC1)C(O)=C(c1c(C)cc(C)cc1C)C(=O)N2OC` [P2.7], the mortality at 400 ppm in test [1], in test [4], in test [5], in test [7], in test [13] and in test [10] was above 80% throughout. In addition, the pest or weed control at 200 ppm in [11] and in [6] was above 80% each time. In addition, the mortality at 25 ppm in test [8] is above 80%. In addition, the mortality at 200 ppm in test [9] was at least 80%.

Take `C#CCON1C(=O)C(c2c(C)cc(C)cc2C)=C(O)C12CCN(OC)CC2` [P2.8, 4-Hydroxy-8-methoxy-1-prop-2-ynyloxy-3-(2,4,6-trimethyl-phenyl)-1,8-diaza-spiro[4.5]dec-3-en-2-one]: the mortality at 400 ppm in [1], in test [2], in [4], in [5], in test [12] and in test [10] was above 80% throughout. For the same compound, the pest or weed control at 200 ppm in test [11] and in test [6] was above 80% throughout. Also, in test [8], the mortality at 25 ppm is above 80%. This compound also yielded a mortality at 200 ppm in test [9] of at least 80%.

Take `COCON1C(=O)C(c2c(C)cc(Br)cc2C)=C(O)C12CCN(OC)CC2` [P2.14, 3-(4-bromo-2,6-dimethyl-phenyl)-4-hydroxy-8-methoxy-1-methoxymethoxy-1,8-diaza-spiro[4.5]dec-3-en-2-one]: the mortality at 400 ppm in test [1], in test [2], in [5], in test [12], in test [13] and in test [10] was above 80% in each case. Further, the pest or weed control at 200 ppm in [11] and in test [6] was above 80% each time. Also, in test [8], the mortality at 25 ppm is above 80%.

Regarding `CON1CCC2(CC1)C(O)=C(c1c(C)cc(C)cc1C)C(=O)N2OC1CCCO1` (centres unmarked) [P2.18, 4-Hydroxy-8-methoxy-1-(tetrahydro-furan-2-yloxy)-3-(2,4,6-trimethyl-phenyl)-1,8-diaza-spiro[4.5]dec-3-en-2-one], the mortality at 400 ppm in test [1], in test [2], in test [4], in [5], in [12] and in test [13] was above 80% each time. The mortality at 400 ppm in [10] is above 80%. For the same compound, the pest or weed control at 200 ppm in test [11] and in test [6] was above 80% each time. Further, the mortality at 25 ppm in test [8] was above 80%. Further, the mortality at 200 ppm in [9] was at least 80%.

In the case of `CON1CCC2(CC1)C(O)=C(c1cc(C)c(C)cc1Cl)C(=O)N2OC1CCCO1` (centres unmarked) [P2.63], the mortality at 400 ppm in test [3] was above 80%. In test [9], this compound yielded a mortality at 200 ppm of at least 80%.
